IC50 data for 14 compounds are collected here from patent US7186714B2, “Imidazo[1,2-α]pyridine derivatives for the prophylaxis and treatment of herpes viral infections” (SmithKline Beecham Corporation, priority 2001, dated 2007).

The IC50 is the concentration at which inhibition is half-maximal. Lower therefore signals greater potency.

Molecules are shown by their SMILES.

The test has as its system HSV-1. As to the kind of experiment: HSV infection of Vero 76 cells, viral DNA detected by hybridization capture with chemiluminescence. The settings on record: Human alphaherpesvirus 1; HSV-1 in Vero 76 cells, MOI=0.001, incubated 40–48 hours with test compound. Format: cell-based. As for the experimental part:
Vero 76 cells were maintained in MEM with Earle's salts, L-glutamine, 8% FBS (Hyclone, A-1111-L) and 100 units/mL Penicillin-100 μg/mL Streptomycin. For assay conditions, FBS was reduced to 2%. Cells are seeded into 96-well tissue culture plates at a density of 5×10^4 cells/well after being incubated for 45 min at 37° C. in the presence of HSV-1 or HSV-2 (MOI=0.001). Test compounds are added to the wells and the plates are incubated at 37° C. for 40–48 hours. Cell lysates are prepared as follows: media was removed and replaced with 150 μL/well 0.2 N NaOH with 1% Igepal CA 630 or NP-40. Plates were incubated up to 14 days at room temperature in a humidified chamber to prevent evaporation.
For the detection probe, a gel-purified, digoxigenin-labeled, 710-bp PCR fragment of the HSV UL-15 sequence was utilized. PCR conditions included 0.5 μM primers, 180 μM dTTP, 20 μM dUTP-digoxigenin (Boehringer Mannheim 1558706), 200 μM each of dATP, dCTP, and dGTP, 1×PCR Buffer II (Perkin Elmer), 2.5 mM MgCl2, 0.025 units/μL of AmpliTaq Gold polymerase (Perkin Elmer), and 5 ng of gel-purified HSV DNA per 100 μL Extension conditions were 10 min at 95° C., followed by 30 cycles of 95° C. for 1 min, 55° C. for 30 sec, and 72° C. for 2 min. The amplification was completed with a 10-min incubation at 72° C. Primers were selected to amplify a 728 bp probe spanning a section of the HSV1 UL15 open reading frame (nucleotides 249–977). Single-stranded transcripts were purified with Promega M13 Wizard kits. The final product was mixed 1:1 with a mixture of 6 M GuSCN, 100 mM EDTA and 200 μg/mL herring sperm DNA and stored at 4° C.
The capture DNA plasmid (HSV UL13 region in pUC) was linearized by cutting with XbaI, denatured for 15 min at 95° C. and diluted immediately into Reacti-Bind DNA Coating Solution (Pierce, 17250, diluted 1:1 with TE buffer, pH 8) at 1 ng/μL 75 μL/well were added to Corning (#3922 or 9690) white 96-well plates and incubated at room temperature for at least 4 hrs before washing twice with 300 μL/well 0.2×SSC/0.05% Tween-20 (SSC/T buffer). The plates were then incubated overnight at room temperature with 150 μL/well 0.2 N NaOH, 1% IGEPAL and 10 μg/mL herring sperm DNA.
Twenty-seven (27) μL of cell lysate was combined with 45 μL of hybridization solution (final concentration: 3M GuSCN, 50 mM EDTA, 100 μg/ml salmon sperm DNA, 5×Denhardt's solution, 0.25×APE, and 5 ng of the digoxigenin-labeled detection probe). APE is 1.5 M NH4-acetate, 0.15 M ammonium phosphate monobasic, and 5 mM EDTA adjusted to pH 6.0. Mineral oil (50 μL) was added to prevent evaporation. The hybridization plates were incubated at 95° C. for 10 minutes to denature the DNA, then incubated at 42° C. overnight. The wells were washed 6× with 300 μL/well SSC/T buffer then incubated with 75 μL/well anti-digoxigenin-HRP-conjugated antibody (Boehringer Mannheim 1207733, 1:5000 in TE) for 30 min at room temperature. The wells were washed 6× with 300 μL/well with PBS/0.05% Tween-20 before 75 μL/well SuperSignal LBA substrate (Pierce) was added. The plates were incubated at room temperature for 30 minutes and chemiluminescence was measured in a Wallac Victor reader.
`Cc1cc(NC2CCCC2)cn2c(-c3ccnc(NC4CCCC4)n3)c(-c3ccc(F)cc3)nc12` [Example 45, N-Cyclopentyl-3-[2-(cyclopentylamino)-4-pyrimidinyl]-2-(4-fluorophenyl)-8-methylimidazo[1,2-a]pyridin-6-amine] displayed an IC50 of 140 nM.

For the compound `Cc1cccn2c(-c3ccnc(NC4CCCC4)n3)c(-c3ccc(F)cc3)nc12` [Example 46, N-Cyclopentyl-4-[2-(4-fluorophenyl)-8-methylimidazo[1,2-a]pyridin-3-yl]-2-pyrimidinamine], the IC50 amounted to 1500 nM.

The compound `Fc1ccc(-c2nc3ccc(Br)cn3c2-c2ccnc(NC3CCCC3)n2)cc1` [Example 47, N-{4-[6-Bromo-2-(4-fluorophenyl)imidazo[1,2-a]pyridin-3-yl]-2-pyrimidinyl}-N-cyclopentylamine] yielded a 50% inhibitory concentration (IC50) of 4000 nM.

On to `Fc1ccc(-c2nc3ccc(NC4CCCC4)cn3c2-c2ccnc(NC3CCCC3)n2)cc1` [Example 48, N-Cyclopentyl-3-[2-(cyclopentylamino)-4-pyrimidinyl]-2-(4-fluorophenyl)imidazo[1,2-a]pyridin-6-amine], for which the concentration for half-maximal inhibition (IC50) came out at 2100 nM.

Consider `Fc1ccc(-c2nc3ccccn3c2-c2ccnc(NC3CCCC3)n2)cc1` [Example 49, N-Cyclopentyl-4-[2-(4-fluorophenyl)imidazo[1,2-a]pyridin-3-yl]-2-pyrimidinamine], for which the concentration for half-maximal inhibition (IC50) was found to be 3300 nM.

As for `Fc1ccc(-c2nc3ccc(N4CCOCC4)cn3c2-c2ccnc(NC3CCCC3)n2)cc1` [Example 50, N-Cyclopentyl-4-[2-(4-fluorophenyl)-6-(4-morpholinyl)imidazo[1,2-a]pyridin-3-yl]-2-pyrimidinamine], the concentration for half-maximal inhibition (IC50) was 180 nM.

`Fc1ccc(-c2nc3c(NC4CC4)cccn3c2-c2ccnc(NC3CCCC3)n2)cc1` [Example 51, 3-[2-(cyclopentylamino)-4-pyrimidinyl]-N-cyclopropyl-2-(4-fluorophenyl)imidazo[1,2-a]pyridin-8-amine] had a half-inhibitory concentration (IC50) of 510 nM.

For the compound `C=CCOc1ccc(-c2nc3c(NC4CCCC4)cccn3c2-c2ccnc(NC3CCCC3)n2)cc1` [Example 52, 2-[4-(Allyloxy)phenyl]-N-cyclopentyl-3-[2-(cyclopentylamino)-4-pyrimidinyl]imidazo[1,2-a]pyridin-8-amine], the concentration for half-maximal inhibition (IC50) stood at 620 nM.

`c1cc(NC2CCCC2)c2nc(-c3ccc(OCC4CC4)cc3)c(-c3ccnc(NC4CCCC4)n3)n2c1` [Example 53, N-Cyclopentyl-3-[2-(cyclopentylamino)-4-pyrimidinyl]-2-[4-(cyclopropylmethoxy)phenyl]imidazo[1,2-a]pyridin-8-amine] yielded a concentration for half-maximal inhibition (IC50) of 200 nM.

The compound `Fc1ccc(-c2nc3c(NC4CCCC4)cc(C(F)(F)F)cn3c2-c2ccnc(NC3CCCC3)n2)cc1` [Example 54, N-Cyclopentyl-3-[2-(cyclopentylamino)-4-pyrimidinyl]-2-(4-fluorophenyl)-6-(trifluoromethyl)imidazo[1,2-a]pyridin-8-amine] had a half-inhibitory concentration (IC50) of 840 nM.

`O=C(O)c1cccc(-c2nc3c(NC4CCCC4)cccn3c2-c2ccnc(NC3CCCC3)n2)c1` [Example 55, 3-{8-(Cyclopentylamino)-3-[2-(cyclopentylamino)pyrimidin-4-yl]imidazo[1,2-a]pyridin-2-yl}benzoic acid] came in with a concentration for half-maximal inhibition (IC50) of 7000 nM.

The compound `CCCCNc1cccn2c(-c3ccnc(NC4CCCC4)n3)c(-c3cccc(N=[N+]=[N-])c3)nc12` [Example 56, 2-(3-Azidophenyl)-N-butyl-3-[2-(cyclopentylamino)pyrimidin-4-yl]imidazo[1,2-a]pyridin-8-amine] showed an IC50 of 2900 nM.

On to `Fc1ccc(-c2nc3c(OCc4ccccc4)cccn3c2-c2ccnc(NC3CCCC3)n2)cc1` [Example 57, 4-[8-(Benzyloxy)-2-(4-fluorophenyl)imidazo[1,2-a]pyridin-3-yl]-N-cyclopentylpyrimidin-2-amine], for which the IC50 was 970 nM.

Compound `Oc1cccn2c(-c3ccnc(NC4CCCC4)n3)c(-c3ccc(F)cc3)nc12` [Example 58] registered an IC50 of 200 nM.
